From patent US7982043B2, “Protein tyrosine kinase enzyme inhibitors” (Wyeth LLC, priority 2003, dated 2011)
≈ marks a conversion by molar mass, not a printed value. Read-outs that look alike come from different tables or passages of the source.

Experiments:
Type in all cases: cell-based
[1] = biological target: mouse fibroblast cell line transfected with the HER-2 oncogene (3T3/neu) (UniProt P04626, cells depend on it, species not given); assay: Cell proliferation assay (SRB), 3T3/neu; conditions: for GI50: read-out: CELL IC50 3T3/NEU (converted)
A431 cells = assay: Cell proliferation assay (SRB), A431; conditions: for IC50: Homo sapiens, A-431, 48 h, read-out: CELL IC50 A431
SK-Br-3 cells = assay: Cell proliferation assay (SRB), SK-Br-3; conditions: EGFR −, Her-2 +++, 2 days, SRB; for IC50: Homo sapiens, SK-BR-3, 48 h, read-out: CELL IC50 SKBr3
MDA-MB-435 cells = assay: Cell proliferation assay (SRB), MDA-MB-435; conditions: EGFR −, Her-2 −, 2 days, SRB; for IC50: Homo sapiens, MDA-MB-435, 48 h, read-out: CELL IC50 MDA-MB-435
SW620 cells = assay: Cell proliferation assay (SRB), SW620; conditions: EGFR −, Her-2 −, 2 days, SRB; for IC50: Homo sapiens, SW-620, 48 h, read-out: CELL IC50 SW620

| SMILES | CELL IC50 3T3/NEU ([1]; EGFR −, Her-2 +++, 2 days, SRB) | CELL IC50 A431 (A431 cells; EGFR +++, Her-2 +, 2 days, SRB) | CELL IC50 SKBr3 (SK-Br-3 cells) | CELL IC50 MDA-MB-435 (MDA-MB-435 cells) | CELL IC50 SW620 (SW620 cells) | CELL IC50 3T3/NEU ([1]; mouse fibroblast cell line transfected with the her-2 oncogene (3t3/neu)) | GI50 ([1]; EGFR −, Her-2 +++, 2 days, SRB) | IC50 (A431 cells; EGFR +++, Her-2 +, 2 days, SRB) | IC50 (SK-Br-3 cells) | IC50 (MDA-MB-435 cells) | IC50 (SW620 cells) | IC50 (A431 cells) |
| --- | --- | --- | --- | --- | --- | --- | --- | --- | --- | --- | --- | --- |
| COc1cc2ncc(C#N)c(Nc3ccc(Sc4nc5ccccc5c(=O)[nH]4)c(Cl)c3)c2cc1N [Example 45] | 1.88 µg/mL | 1.22 µg/mL | 2.15 µg/mL | 4.58 µg/mL | 4.66 µg/mL | – | – | – | – | – | – | – |
| COc1cc2ncc(C#N)c(Nc3ccc(Sc4nc5ccccc5c(=O)[nH]4)c(Cl)c3)c2cc1NC(=O)/C=C/CN(C)C [Example 46] | – | 0.34 µg/mL | 0.06 µg/mL | >5 µg/mL | >5 µg/mL | 0.15 µg/mL | – | – | – | – | – | – |
| COc1cc2ncc(C#N)c(Nc3ccc(N(Cc4cccnc4)C(C)=O)c(Cl)c3)c2cc1NC(=O)/C=C/CN(C)C [Example 47] | >5 µg/mL | 0.646 µg/mL | >5 µg/mL | 1.16 µg/mL | 1.64 µg/mL | – | – | – | – | – | – | – |
| COc1cc2ncc(C#N)c(Nc3ccc(N(Cc4cccnc4)C(C)=O)c(Cl)c3)c2cc1[N+](=O)[O-] [Example 48] | 1.79 µg/mL | 1.6 µg/mL | 0.68 µg/mL | 2.61 µg/mL | 2.57 µg/mL | – | – | – | – | – | – | – |
| COc1cc2ncc(C#N)c(Nc3ccc(N(Cc4cccnc4)C(C)=O)c(Cl)c3)c2cc1N [Example 49] | 2.4 µg/mL | >5 µg/mL | 3.41 µg/mL | 3.76 µg/mL | >5 µg/mL | – | – | – | – | – | – | – |
| COc1cc2ncc(C#N)c(Nc3ccc(N(Cc4cccnc4)C(C)=O)c(Cl)c3)c2cc1NC(C)=O [Example 50] | >5 µg/mL | 3.68 µg/mL | 3.94 µg/mL | >5 µg/mL | >5 µg/mL | – | – | – | – | – | – | – |
| CCOc1cc2ncc(C#N)c(Nc3ccc(Nc4nnc(C(F)(F)F)s4)c(Cl)c3)c2cc1[N+](=O)[O-] [Example 52, 4-(3-chloro-4-{[5-(trifluoromethyl)-1,3,4-thiadiazol-2-yl]amino}anilino)-7-ethoxy-6-nitro-3-quinolinecarbonitrile] | – | – | – | – | – | – | 3.53 µM | 1.79 µg/mL (≈ 3.34 µM) | 1.22 µg/mL (≈ 2.28 µM) | 1.84 µg/mL (≈ 3.43 µM) | 2.54 µg/mL (≈ 4.74 µM) | – |
| CCOc1cc2ncc(C#N)c(Nc3ccc(Nc4nnc(C(F)(F)F)s4)c(Cl)c3)c2cc1NC(=O)/C=C/CN(C)C [Example 53, (E)-N-[4-(3-chloro-4-{[5-(trifluoromethyl)-1,3,4-thiadiazol-2-yl]amino}anilino)-3-cyano-7-ethoxy-6-quinolinyl]-4-(dimethylamino)-2-butenamide] | – | – | – | – | – | – | 1.44 µM | 0.728 µg/mL (≈ 1.18 µM) | 0.179 µg/mL (≈ 0.29 µM) | 0.95 µg/mL (≈ 1.54 µM) | 1.05 µg/mL (≈ 1.7 µM) | – |
| CCOc1cc2ncc(C#N)c(Nc3ccc(Oc4ccncc4)c(Cl)c3)c2cc1[N+](=O)[O-] [Example 54, 4-[3-chloro-4-(4-pyridinyloxy)anilino]-7-ethoxy-6-nitro-3-quinolinecarbonitrile] | – | – | – | – | – | – | > 10.8 µM | > 5 µg/mL | > 5 µg/mL | 2.54 µg/mL (≈ 5.5 µM) | > 5 µg/mL | – |
| CCOc1cc2ncc(C#N)c(Nc3ccc(Oc4ccncc4)c(Cl)c3)c2cc1N [Example 55, 6-amino-4-[3-chloro-4-(4-pyridinyloxy)anilino]-7-ethoxy-3-quinolinecarbonitrile] | – | – | – | – | – | – | > 11.6 µM | > 5 µg/mL | > 5 µg/mL | 1.61 µg/mL (≈ 3.73 µM) | > 5 µg/mL | – |
| CCOc1cc2ncc(C#N)c(Nc3ccc(Oc4ccncc4)c(Cl)c3)c2cc1NC(=O)/C=C/CN(C)C [Example 56, (E)-N-{4-[3-chloro-4-(4-pyridinyloxy)anilino]-3-cyano-7-ethoxy-6-quinolinyl}-4-(dimethylamino)-2-butenamide] | – | – | – | – | – | – | > 9.21 µM | – | 1.51 µg/mL (≈ 2.78 µM) | 2.06 µg/mL (≈ 3.79 µM) | > 5 µg/mL | 3.27 µg/mL (≈ 6.02 µM) |
